Data as given in patent US11572362B2, “Pyrrolo[1,2-b]pyridazine derivatives” (Gilead Sciences, Inc., priority 2018, dated 2023).

Assays:
TNFα = assay: IRAK4 Monocyte TNFα Cell Based Assay; details: cryopreserved human monocytes, 50 pg/ml LPS, compound 1 hour pre-treatment, 4 hours stimulation, TNFα by TR-FRET
Procedure: IRAK4 Monocyte TNFα Cell Based Assay Procedure:
The cell suspension was then plated at a density of 5,000 cells/well onto black 384 well Greiner clear bottom plates. Plates were pre-spotted with test compounds and serially diluted in DMSO where 40 nL/well were delivered using the Echo 550 acoustic liquid dispenser (Labcyte®) for a final DMSO concentration of 0.1%. Plated cells were treated with compound for 1 hour at 37° C. Cells were then stimulated with 50 pg/ml of LPS (Sigma) excluding outside columns of plate used for unstimulated cell control wells. Cells were incubated for an additional 4 hours at 37° C. Cells were then spun out of the media and 5 μl of sample were taken and analyzed for total TNFα content using the TR-FRET Human TNFα detection system (CisBio). This system utilizes two labeled antibodies (cryptate and XL665) that bind to two different epitopes of the TNFα molecule and produce FRET signal proportional to the concentration of TNFα in the sample. Detection antibodies are mixed 50:50 and 5 μL were dispensed into each well. Plates were covered with clear seals and incubated at room temp overnight. The following morning plates were read using an Envision 2103 Multilabeled reader (PerkinElmer) with excitation/emission/FRET emission at 340 nm/615 nm/665 nm, respectively. Fluorescence intensities at 615 nm and 665 nm emission wavelengths were expressed as a ratio (665 nm/615 nm). Percent of control was calculated as follows: % Control=100×(RatioSample−Ratio0% Stimulation)/(Ratio100% Stimulation−Ratio0% Stimulation)
where unstimulated cells (0% stimulation) were the negative control and stimulated cells (100% stimulation) were used as the positive control.

IRAK4 = IRAK4 (Homo sapiens (Human), UniProt Q9NWZ3); assay: IRAK4 Biochemical Assay (TR-FRET/HTRF); details: IRAK4 enzyme 0.75 nM, 500 μM ATP, 2 μM STK1 peptide, 120 min
Procedure: IRAK4 Biochemical Assay Procedure:
IRAK4 enzyme (Carna Biosciences, Chuo-ku, Kobe, Japan) activity was measured by detecting phosphorylated peptide substrate formation using an antibody against the phosphorylated peptide substrate. This is a time-resolved fluorescence resonance energy transfer (TR-FRET) immunoassay, based on the STK1 KinEASE Assay (Cisbio, Bedford, Mass.). The assay was designed as a simple two-step, endpoint assay (a 5 μl enzyme reaction followed by 5 μl stop and detect Solution) performed in ProxiPlate-384 Plus plates (Perkin Elmer, Waltham, Mass.). Staurosporine, a non-selective kinase inhibitor was used as a positive control. Compounds diluted in DMSO were spotted into 384 well plates using a Labcyte® Echo 550 Liquid Handling System prior to addition of IRAK4 enzyme and peptide substrate. Reaction solutions were delivered using a Multi-Flo (Bio-Tek Instruments). The enzyme and peptide solution was incubated with compound for 15 minutes at room temp before the reaction was initiated by the addition of ATP. The standard 5 μl reaction mixture contained 500 μM ATP, 2 μM peptide (STK1 Peptide), 0.75 nM of IRAK4 in reaction buffer (50 mM HEPES, pH 7.0, 0.02% NaN3, 0.01% BSA, 0.1 mM Orthovanadate, 5 mM MgCl2, 0.025% NP-40, 1 mM DTT). After 120 min of incubation at room temperature, 5 μl of Stop and Detect Solution (1:100 Cryptate labeled anti-phosphorylated peptide antibody solution and 125 nM Tracer in a 50 mM HEPES pH 7.0 detection buffer containing sufficient EDTA) was added. The plate was then further incubated for 60 minutes at room temperature and read on Envision 2103 Multilabeled reader (PerkinElmer) with excitation/emission/FRET emission at 340 nm/615 nm/665 nm, respectively. Fluorescence intensities at 615 nm and 665 nm emission wavelengths were expressed as a ratio (665 nm/615 nm). Percentage of inhibition was calculated as below: % Inhibition=100×(RatioSample−Ratio0% Inhibition)/(Ratio100% Inhibition−Ratio0% Inhibition)
The 0% inhibition value comes from control wells lacking inhibitor. The 100% inhibition value comes from control wells containing a saturating amount of known inhibitor staurosporine.

Chain of IRAK4 (Q9NWZ3 whole entry): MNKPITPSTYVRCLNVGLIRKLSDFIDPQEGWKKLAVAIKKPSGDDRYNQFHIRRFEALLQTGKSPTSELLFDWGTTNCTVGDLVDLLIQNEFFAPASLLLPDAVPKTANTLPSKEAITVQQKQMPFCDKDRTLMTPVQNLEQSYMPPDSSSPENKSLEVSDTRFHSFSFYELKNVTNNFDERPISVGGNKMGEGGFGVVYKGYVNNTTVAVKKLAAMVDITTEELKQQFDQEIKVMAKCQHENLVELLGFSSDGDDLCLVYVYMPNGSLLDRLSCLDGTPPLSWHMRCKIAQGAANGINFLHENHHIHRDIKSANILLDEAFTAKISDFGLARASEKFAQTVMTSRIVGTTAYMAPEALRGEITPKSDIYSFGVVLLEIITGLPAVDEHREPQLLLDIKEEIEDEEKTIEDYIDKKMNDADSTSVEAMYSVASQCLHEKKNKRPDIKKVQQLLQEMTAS

Row | EC50 (TNFα; Monocyte) [nM] | IC50 (IRAK4) [nM] | EC50 (TNFα) [nM] | SMILES
1 | 8 | < 1 |  | CC(C)(O)[C@H](F)CNC(=O)c1cnc(-c2ccc3cc(C#N)cnn23)cc1NC12CCC(c3cnco3)(CC1)CC2 [Compound 66, (R)-6-(3-cyanopyrrolo[1,2-b]pyridazin-7-yl)-N-(2-fluoro-3-hydroxy-3-methylbutyl)-4-((4-(oxazol-5-yl)bicyclo[2.2.2]octan-1-yl)amino)nicotinamide]
2 | 38 | < 1 |  | CC(C)(O)[C@H](F)CNC(=O)c1cnc(-c2ccc3cc(C#N)cnn23)cc1NC12CCC(N3CCC(F)(F)CC3)(CC1)CC2 [Compound 68, (R)-6-(3-cyanopyrrolo[1,2-b]pyridazin-7-yl)-4-((4-(4,4-difluoropiperidin-1-yl)bicyclo[2.2.2]octan-1-yl)amino)-N-(2-fluoro-3-hydroxy-3-methylbutyl)nicotinamide]
3 | 53 | 1 |  | CC(C)(O)[C@H](F)CNC(=O)c1cnc(-c2ccc3cc(C#N)cnn23)cc1N[C@H]1CC[C@H](c2cnn(C3CC3)c2)CC1 [Compound 14, 6-(3-cyanopyrrolo[1,2-b]pyridazin-7-yl)-4-(((1r,4R)-4-(1-cyclopropyl-1H-pyrazol-4-yl)cyclohexyl)amino)-N-((R)-2-fluoro-3-hydroxy-3-methylbutyl)nicotinamide]
4 | 35 | < 1 |  | Cn1nnc([C@H]2CC[C@H](Nc3cc(-c4ccc5cc(C#N)cnn45)ncc3C(=O)NC[C@@H](F)C(C)(C)O)CC2)n1 [Compound 15, 6-(3-cyanopyrrolo[1,2-b]pyridazin-7-yl)-N-((R)-2-fluoro-3-hydroxy-3-methylbutyl)-4-(((1r,4R)-4-(2-methyl-2H-tetrazol-5-yl)cyclohexyl)amino)nicotinamide]
5 | 16 | < 1 |  | CC(C)(O)[C@H](F)CNC(=O)c1cnc(-c2ccc3cc(C#N)cnn23)cc1N[C@H]1CC[C@H](n2cc(C(F)F)nn2)CC1 [Compound 35, 6-(3-cyanopyrrolo[1,2-b]pyridazin-7-yl)-4-(((1r,4R)-4-(4-(difluoromethyl)-1H-1,2,3-triazol-1-yl)cyclohexyl)amino)-N-((R)-2-fluoro-3-hydroxy-3-methylbutyl)nicotinamide]
6 | 40 | 1 |  | CC(C)(O)[C@H](F)CNC(=O)c1cnc(-c2ccc3cc(C#N)cnn23)cc1N[C@H]1CC[C@H](n2ccnn2)CC1 [Compound 31, 4-(((1r,4R)-4-(1H-1,2,3-triazol-1-yl)cyclohexyl)amino)-6-(3-cyanopyrrolo[1,2-b]pyridazin-7-yl)-N-((R)-2-fluoro-3-hydroxy-3-methylbutyl)nicotinamide]
7 | 4 | < 1 |  | CC(C)(O)[C@H](F)CNC(=O)c1cnc(-c2ccc3cc(C#N)cnn23)cc1N[C@H]1CC[C@H](c2cn[nH]c2)CC1 [Compound 1, 4-(((1r,4R)-4-(1H-pyrazol-4-yl)cyclohexyl)amino)-6-(3-cyanopyrrolo[1,2-b]pyridazin-7-yl)-N-((R)-2-fluoro-3-hydroxy-3-methylbutyl)nicotinamide]
8 | 4 | < 1 |  | CC(C)(O)[C@H](F)CNC(=O)c1cnc(-c2ccc3cc(C#N)cnn23)cc1NC12CCC(c3nncs3)(CC1)CC2 [Compound 61, (R)-4-((4-(1,3,4-thiadiazol-2-yl)bicyclo[2.2.2]octan-1-yl)amino)-6-(3-cyanopyrrolo[1,2-b]pyridazin-7-yl)-N-(2-fluoro-3-hydroxy-3-methylbutyl)nicotinamide]
9 | 221 | 9 |  | CC(C)(O)[C@H](F)CNC(=O)c1cnc(-c2ccc3cc(C#N)cnn23)cc1NC1CCC(c2ccncc2)CC1 (single isomer, unassigned) [Compound 56]
10 |  | 0.639 | 31.3 | CC(C)(O)[C@H](F)CNC(=O)c1cnc(-c2ccc3cc(C#N)cnn23)cc1N[C@H]1CC[C@H](c2nnn(C(F)F)n2)CC1 [Compound 72, 6-(3-cyanopyrrolo[1,2-b]pyridazin-7-yl)-4-(((1r,4R)-4-(2-(difluoromethyl)-2H-tetrazol-5-yl)cyclohexyl)amino)-N-((R)-2-fluoro-3-hydroxy-3-methylbutyl)nicotinamide]
11 | 63 | 1 |  | CC(C)(O)[C@H](F)CNC(=O)c1cnc(-c2ccc3cc(C#N)cnn23)cc1N[C@H]1CC[C@H](n2cc(C3CC3)nn2)CC1 [Compound 32, 6-(3-cyanopyrrolo[1,2-b]pyridazin-7-yl)-4-(((1r,4R)-4-(4-cyclopropyl-1H-1,2,3-triazol-1-yl)cyclohexyl)amino)-N-((R)-2-fluoro-3-hydroxy-3-methylbutyl)nicotinamide]
12 | 18 | < 1 |  | CC(C)(O)[C@H](F)CNC(=O)c1cnc(-c2ccc3cc(C#N)cnn23)cc1N[C@H]1CC[C@H](c2ccccn2)CC1 [Compound 54, 6-(3-cyanopyrrolo[1,2-b]pyridazin-7-yl)-N-((R)-2-fluoro-3-hydroxy-3-methylbutyl)-4-(((1r,4R)-4-(pyridin-2-yl)cyclohexyl)amino)nicotinamide]
13 | 27 | 1 |  | CC(C)(O)[C@H](F)CNC(=O)c1cnc(-c2ccc3cc(C#N)cnn23)cc1N[C@H]1CC[C@H](c2cn(C(F)F)nn2)CC1 [Compound 18, 6-(3-cyanopyrrolo[1,2-b]pyridazin-7-yl)-4-(((1r,4R)-4-(1-(difluoromethyl)-1H-1,2,3-triazol-4-yl)cyclohexyl)amino)-N-((R)-2-fluoro-3-hydroxy-3-methylbutyl)nicotinamide]
14 | 23 | 1 |  | CC(C)(O)[C@H](F)CNC(=O)c1cnc(-c2ccc3cc(C#N)cnn23)cc1NC12CCC(c3nnc(C(F)F)o3)(CC1)OC2 [Compound 65, (R)-6-(3-cyanopyrrolo[1,2-b]pyridazin-7-yl)-4-((1-(5-(difluoromethyl)-1,3,4-oxadiazol-2-yl)-2-oxabicyclo[2.2.2]octan-4-yl)amino)-N-(2-fluoro-3-hydroxy-3-methylbutyl)nicotinamide]
15 | 26 | < 1 |  | Cn1cc([C@H]2CC[C@H](Nc3cc(-c4ccc5cc(C#N)cnn45)ncc3C(=O)NC[C@@H](F)C(C)(C)O)CC2)nn1 [Compound 19, 6-(3-cyanopyrrolo[1,2-b]pyridazin-7-yl)-N-((R)-2-fluoro-3-hydroxy-3-methylbutyl)-4-(((1r,4R)-4-(1-methyl-1H-1,2,3-triazol-4-yl)cyclohexyl)amino)nicotinamide]
16 | 112 | 4 |  | Cc1ncc(C2CCC(Nc3cc(-c4ccc5cc(C#N)cnn45)ncc3C(=O)NC[C@@H](F)C(C)(C)O)CC2)cn1 (stereo partly drawn) [Compound 58, (R)-6-(3-cyanopyrrolo[1,2-b]pyridazin-7-yl)-N-(2-fluoro-3-hydroxy-3-methylbutyl)-4-((4-(2-methylpyrimidin-5-yl)cyclohexyl)amino)nicotinamide]
17 | 15 | < 1 |  | CC(C)(O)[C@H](F)CNC(=O)c1cnc(-c2ccc3cc(C#N)cnn23)cc1NC12CCC(N3CCOCC3=O)(CC1)CC2 [Compound 69, (R)-6-(3-cyanopyrrolo[1,2-b]pyridazin-7-yl)-N-(2-fluoro-3-hydroxy-3-methylbutyl)-4-((4-(3-oxomorpholino)bicyclo[2.2.2]octan-1-yl)amino)nicotinamide]
18 | 76 | 3 |  | CC(C)(O)[C@H](F)CNC(=O)c1cnc(-c2ccc3cc(C#N)cnn23)cc1NC1CCC(c2cnc(C(F)F)s2)CC1 (stereo partly drawn) [Compound 51, (R)-6-(3-cyanopyrrolo[1,2-b]pyridazin-7-yl)-4-((4-(2-(difluoromethyl)thiazol-5-yl)cyclohexyl)amino)-N-(2-fluoro-3-hydroxy-3-methylbutyl)nicotinamide]
